Here are results for two molecules from PMC10386076, “Discovery of RC-752, a Novel Sigma-1 Receptor Antagonist with Antinociceptive Activity: A Promising Tool for Fighting Neuropathic Pain” (Pharmaceuticals, 2023).

Data set [1] deals with MRC-5 (human normal lung fibroblasts). The data set can be described thus: MTS cytotoxicity assay, MRC-5. In kind it is cell-based. The procedure: (§1) The early toxicity assays included in vitro cytotoxicity against two human cell lines, namely MRC-5 (human normal lung fibroblasts) and CHME-5 (human microglial cells) and an in vivo zebrafish model. The cell lines MRC-5 and CHME-5 were exposed for 24, 48, and 72 h to increasing concentrations of the tested compounds (from 0.1 to 100 µM).
(§2) A CellTiter 96® AQueous One Solution Cell Proliferation Assay (Promega, Milan, Italy) was used on cells seeded onto a 96-well plate at a density of 9 × 10^3 cells per well. The effect of the test compound was evaluated at four different concentrations (0.1, 1, 10, and 100 μM) after 24 h of continued exposure. Two independent experiments were performed for each concentration. The optical density (OD) of the treated and untreated cells was determined at a wavelength of 490 nm using a plate reader. The data were elaborated with the GraphPad Prism 5 program.

A further data set concerns the target T1, S1R (Cavia porcellus, UniProt Q60492).
T1 construct: tissue Harlan-Winkelmann, Borchen, Germany; host or cells: guinea pig brain membrane homogenate
The data set can be described thus: S1R radioligand displacement binding assay ([3H]-(+)-pentazocine). The arrangement: species or system guinea pig. The conditions noted are these: for Selectivity (Ki S2R/Ki S1R): ratio Ki S2R/Ki S1R. The method, then: (R/S)-1a–3e were first evaluated for their binding affinity toward the S1R and S2R in a radioligand displacement assay. […] Nonspecific binding was determined using non-radiolabeled (+)-pentazocine and haloperidol in excess. All the binding experiments were carried out in duplicate. […] Haloperidol was used as a control compound in both assays.
Five guinea pig brains were homogenized with the potter (500–800 rpm, 10 up and down strokes) in 6 volumes of cold 0.32 M sucrose. The suspension was centrifuged at 1200× g for 10 min at 4 °C. […] This procedure was repeated twice. The final pellet was resuspended in 56 volumes of buffer and frozen ([…]) in 1.5 mL portions containing about 1.5 mg protein/mL.
The test compound solutions were prepared by dissolving approximately 10 µmol (usually 2–4 mg) of test compound in dimethyl sulfoxide (DMSO, unless otherwise specified), so that a 10 mM stock solution was obtained. To obtain the required test solutions for the assay, the DMSO stock solution was diluted with the respective assay buffer. The filtermats were presoaked in 0.5% aqueous polyethylenamine solution for 2 h at r.t. before use. All the binding experiments were carried out in duplicate in 96-well multiplates. The concentrations given are the final concentrations in the assay. […] The receptor preparation was always added last. During the incubation, the multiplates were shaken at a speed of 500–600 rpm at the specified temperature. […] During the filtration each well was washed five times with 300 µL of water. Subsequently, the filtermats were dried at 95 °C. The solid scintillator was melted on the dried filtermats at 95 °C for 5 min. After the solidifying of the scintillator at r.t., the trapped radioactivity in the filtermats was measured with the scintillation analyzer. Each position on the filtermat corresponding to one well of the multiplate was measured for 5 min with the [^3H]-counting protocol. The overall counting efficiency was 20%. The IC50 values were calculated with GraphPad Prism 3.0 (GraphPad Software, San Diego, CA, USA) by nonlinear regression analysis. The IC50 values were subsequently transformed into Ki values using the equation of Cheng and Prusoff. All the experiments were carried out in duplicates. Compounds with high S1R affinity were tested in three independent experiments, and their Ki values are given as mean value ± SEM from the three measurements. […] (22.0 Ci/mmol; Perkin-Elmer). […] The nonspecific binding was determined with 10 µM unlabeled (+)-pentazocine.

The test system of a further data set is HeLa cells. The data set can be described thus: AQP-mediated osmotic water permeability assay (stopped-flow light scattering). Conditions: pre-treatment 20 μM, heat stress 42 °C 3 h. The method, then: As an orthogonal assay to determine the functional profile of our compounds, the effect on AQP-mediated water permeability was investigated. AQPs are a family of transmembrane proteins involved in the transport of water and other small molecules (e.g., H2O2) through cell membranes. AQP functions are thus critical in ensuring reactive oxygen species (ROS) scavenging and cell survival. […] Briefly, the osmotic water permeability of HeLa cells was measured by a stopped-flow light scattering method and expressed as a percentage of k relative.
Osmotic water permeability was measured in the HeLa cell suspension by the stopped-flow light scattering method, as previously described. The experiments were performed at 25 °C on the stopped-flow apparatus (RX2000, Applied Photophysics, Leatherhead, UK) with a pneumatic drive accessory (DA.1, Applied Photophysics) straightforwardly coupled with a Varian Cary 50 spectrometer (Varian Australia Pty Ltd., Mulgrave, Australia). Briefly, scattered light intensity with a dead time of 6 ms was recorded at a wavelength of 450 nm. […] To evaluate the effect of the test compounds on water permeability, the HeLa cells were divided into different groups: (1) controls, cells incubated at r.t. (21 °C) in the presence of the same volume of methanol as that of the treated cells; (2) heat-stressed cells, cells heat-treated in a water thermostatic and shacking bath at 42 °C for 3 h; (3) heat-stressed cells pre-treated with the test compounds at a 20 µM final concentration (dissolved in methanol).

Data set [2] deals with CHME-5 (human microglial cells). The data set can be described thus: MTS cytotoxicity assay, CHME-5. The class given is cell-based. Conditions: for cell survival: CHME-5, 100 μM, all time points. The procedure:
as §1, §2

Another data set deals with PC12 cells. The data set can be described thus: NGF-induced neurite outgrowth assay in PC12 cells. The class given is cell-based. Conditions: for effect on percentage of differentiated PC12 cells, co-administration with PRE-084: 0.25 μM and 2.5 μM with 10 μM PRE-084, vs PRE-084; for effect on NGF-induced neurite outgrowth, compound alone: 0.25 μM and 2.5 μM, vs NGF. The procedure: At 80% confluence, the cells were either split to allow a further culture expansion or plated onto 48-well flat-bottom plates previously coated with poly-L-ornithine (Sigma Aldrich, Milan, Italy) at the final concentration of 10 μg/cm^2. The cells were plated at low density (2500 cells/well) to allow proper neurite elongation. The PC12 cells were mechanically detached from the flask to avoid cell-surface receptor cleavage and to preserve the correct binding of NGF to the TrkA receptors. To minimize detachment stress, the cells were left in PM for 24 h to recover. […] PRE-084 (10 µM), an S1R agonist, was used to verify that the effects of the selected compounds were due to the S1R modulation. In CTR conditions, the cells were incubated with the drug vehicle. For all the ligands, two replicates per concentration were performed in at least 3 experiments with different PC12 batches.
After 72 h incubation in DM, the cells were fixed with a 4% paraformaldehyde solution (pH 7.4). To allow the neurite visualization with a bright-field microscope, the cells were stained with the Harris Hematoxylin solution (Sigma Aldrich). After staining, images of six fields per well were acquired with a digital camera linked to a bright-field inverted microscope (Optika) (20× magnification). […] Only the cells bearing a neurite as long as their soma’s diameter were identified as differentiated cells. The number of differentiated cells was expressed as the percentage of differentiated cells over the total number of cells.

[3] abbreviates: MRC-5, concentrations ≤10 μM, 24, 48 and 72 h.
The mark [4] stands for this setting: CHME-5, concentrations ≤10 μM, 24, 48 and 72 h.

Entries after “also recorded” stand apart in the source; their conditions may differ.

T1 sequence (Q60492 whole entry): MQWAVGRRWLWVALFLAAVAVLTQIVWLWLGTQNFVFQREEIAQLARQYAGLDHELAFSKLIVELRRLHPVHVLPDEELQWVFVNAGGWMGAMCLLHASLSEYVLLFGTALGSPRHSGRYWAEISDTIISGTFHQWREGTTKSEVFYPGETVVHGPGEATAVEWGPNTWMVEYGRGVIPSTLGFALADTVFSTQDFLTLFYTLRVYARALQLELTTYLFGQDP

On to `CN(CCC(CO)c1ccc(-c2ccccc2)cc1)Cc1ccccc1` (stereo not drawn) [Compound 1c, 3-([1,1’-biphenyl]-4-yl)-N-benzyl-4-hydroxy-N-methylbutanamine], for which the cytotoxicity entry in data set [1] (MRC-5, 100 µM, 24 h of exposure) is listed as “evident cytotoxic effects”; in data set [1] (setting [3]) it was “no cytotoxicity”; in data set [2] (CHME-5, 100 µM, 24 h of exposure), “evident cytotoxic effects”; in data set [2] (setting [4]), “no cytotoxicity”. The affinity at S1R, expressed as Ki, was 0.95 ± 0.08 nM. Moreover, on S1R, the “Selectivity (Ki S2R/Ki S1R)” value is on record as 127. In the data set on HeLa cells, the “effect on water permeability in heat-stressed HeLa cells” value is reported as “in line with that of S1R antagonists”. Also, the cell survival result in data set [2] is recorded as “reduced the survival”. The “effect on percentage of differentiated PC12 cells, co-administration with PRE-084” value in the data set with PC12 cells was “significantly reduced”. The “effect on NGF-induced neurite outgrowth, compound alone” value in the data set on PC12 cells was “did not significantly enhance”.

On to `OCC(CCN1CCCCC1)c1ccc(-c2ccccc2)cc1` (stereo not drawn) [Compound 1d, 2-([1,1’-biphenyl]-4-yl)-4-(piperidin-1-yl)butan-1-ol], for which the cytotoxicity result in data set [1] (MRC-5, 100 µM, 24 and 48 h of exposure) is given as “no significative cytotoxicity”; in data set [1] (setting [3]) it was “no cytotoxicity”; in data set [2] (CHME-5, 100 µM, 24 and 48 h of exposure), “no significative cytotoxicity”; in data set [2] (setting [4]), “no cytotoxicity”. Further, the survival rate result in data set [1] (MRC-5, 100 µM, 72 h) is on record as “higher than 50%”; in data set [2] (CHME-5, 100 µM, 72 h), “higher than 50%”. The “Selectivity (Ki S2R/Ki S1R)” value at S1R stood at 58. The “effect on water permeability in heat-stressed HeLa cells” value in the data set on HeLa cells was “in line with that of S1R antagonists”. Moreover, in data set [2], the cell survival entry is “reduced the survival”. In addition, the “effect on percentage of differentiated PC12 cells, co-administration with PRE-084” value with PC12 cells (listed as (R/S)-1d) is given as “significantly reduced; also recorded: most effective”. For the same molecule, the “effect on NGF-induced neurite outgrowth, compound alone” value in the data set on PC12 cells is “did not significantly enhance”.
